From US20140094366A1, “SYNERGISTIC WEED CONTROL FROM APPLICATIONS OF AMINOCYCLOPYRACHLOR AND FLUROXYPYR” (Dow AgroSciences LLC, priority 2012, published 2014)

Legend:
Test in all cases: Field trial, post-emergence foliar weed control
Assay type in all cases: in vivo
[1] = test system: buckhorn plantain (Plantago lanceolata, PLALA); details: 27 DAYS, 18 g ae/ha, alone
Excerpt: (§1) The (a) aminocyclopyrachloror an agriculturally acceptable salt or ester thereof is mixed with or applied in combination with (b) fluoroxypyr or an agriculturally acceptable salt or ester thereof in an amount sufficient to induce a synergistic herbicidal effect. […] As described in the Herbicide Handbook of the Weed Science Society of America, Ninth Edition, 2007, p. 429, “‘synergism’ [is] an interaction of two or more factors such that the effect when combined is greater than the predicted effect based on the response to each factor applied separately.” Synergistic in the herbicide context can mean that the use of (a) and (b) as defined above results in an increased weed control effect compared to the weed control effects that are possible with the use of (a) or (b) alone. In some embodiments, the damage or injury to the undesired vegetation caused by the compositions and methods disclosed herein is evaluated using a scale from 0% to 100%, when compared with the untreated control vegetation, wherein 0% indicates no damage to the undesired vegetation and 100% indicates complete destruction of the undesired vegetation. […] 22 (1967)
(§2) Field trials were conducted with applications made to established grassland with naturally occurring weed populations, or applications were made to bare ground with naturally occurring weed populations. The target plants were treated with postemergence foliar applications after they had reached at least 3-4 leaves or at least 2-5 inches in height. All treatments were applied using a randomized complete block trial design, with 3-4 replications per treatment.
(§3) Treatments consisted of aminocyclopyrachlor in acid form and fluoroxypyr-meptyl, each in water and applied alone or in combination. Spray solutions were prepared using an appropriate amount of dilution to form a 2 liter (L) aqueous spray solution with active ingredients in single and two way combinations. Formulated compounds were applied to the plant material with a backpack sprayer equipped with 8003 or Turbojet nozzles calibrated to deliver 187 liters per hectare (L/ha) to 400 L/ha at a spray height of 18-20 inches (43-50 centimeters (cm)) above average plant canopy or ground.
(§4) The treated plants were shepherd's purse (Capsella bursa-pastoris, CAPBP), common fiddleneck (Amsinckia menziesii, AMSIN), wild oat (Avena fatua, AVEFA), cat's ear dandelion (Hypochaeris radicata, HRYRA), yellow star thistle (Centaurea solstitialis, CENSO), common guava (Psidium guajava, PSIGU), buckhorn plantain (Plantago lanceolata, PLALA), and calvary clover (Medicago arabica, MEDAB). The treated plots and control plots were rated blind at various intervals after application. Ratings were based on a scale of 0-100%, as discussed above, wherein 0% indicates no damage to the undesired vegetation and 100% indicates complete destruction of the undesired vegetation.
(§5) Colby's equation was used to determine the herbicidal effects expected from the mixtures, as described above. The results were measured at 11 days, 17 days, 24 days, 27 days, 37 days, 70 days, 76 days, and 88 days after the first application of the compositions. […] The herbicide tank mix combinations tested, application rates and ratios employed, plant species tested, and results are given below.

[2] = test system: calvary clover (Medicago arabica, MEDAB); details: 27 DAYS, alone
Excerpt: as §1, §2, §3, §4, §5

[3] = test system: cat's ear dandelion (Hypochaeris radicata, HRYRA); details: alone
Excerpt: as §1, §2, §3, §4, §5

[4] = test system: common fiddleneck (Amsinckia menziesii, AMSIN); details: alone; for Aminocyclopyrachlor Mean % weed control: 18 g ae/ha; for Fluroxypyr-meptyl Mean % weed control: 70 g ae/ha
Excerpt: as §1, §2, §3, §4, §5

[5] = test system: common guava (Psidium guajava, PSIGU); details: alone
Excerpt: as §1, §2, §3, §4, §5

[6] = test system: shepherd's purse (Capsella bursa-pastoris, CAPBP); details: alone
Excerpt: as §1, §2, §3, §4, §5

[7] = test system: wild oat (Avena fatua, AVEFA); details: 11 DAYS, alone
Excerpt: as §1, §2, §3, §4, §5

[8] = test system: yellow star thistle (Centaurea solstitialis, CENSO); details: 37 DAYS, alone
Excerpt: as §1, §2, §3, §4, §5

Nc1nc(C2CC2)nc(C(=O)O)c1Cl [Aminocyclopyrachlor, 6-amino-5-chloro-2-cyclopropylpyrimidine-4-carboxylic acid]
Aminocyclopyrachlor Mean % weed control [1]: 22.5%
Aminocyclopyrachlor Mean % weed control ([2]; 18 g ae/ha): 27.5%
Aminocyclopyrachlor Mean % weed control ([2]; 35 g ae/ha): 47.5%
Aminocyclopyrachlor Mean % weed control ([3]; 11 DAYS, 35 g ae/ha): 1.75%
Aminocyclopyrachlor Mean % weed control ([3]; 37 DAYS, 18 g ae/ha): 28.75%
Aminocyclopyrachlor Mean % weed control ([3]; 70 DAYS, 18 g ae/ha): 36.25%
Aminocyclopyrachlor Mean % weed control ([4]; 17 DAYS): 0%
Aminocyclopyrachlor Mean % weed control ([4]; 24 DAYS): 0%
Aminocyclopyrachlor Mean % weed control ([5]; 76 DAYS, 50 g ae/ha): 7.5%
Aminocyclopyrachlor Mean % weed control ([5]; 76 DAYS, 150 g ae/ha): 48.3%
Aminocyclopyrachlor Mean % weed control ([5]; 88 DAYS, 50 g ae/ha): 7.5%
Aminocyclopyrachlor Mean % weed control ([5]; 88 DAYS, 150 g ae/ha): 57.5%
Aminocyclopyrachlor Mean % weed control ([6]; 17 DAYS, 18 g ae/ha): 23.33%
Aminocyclopyrachlor Mean % weed control ([6]; 17 DAYS, 35 g ae/ha): 50%
Aminocyclopyrachlor Mean % weed control ([6]; 24 DAYS, 35 g ae/ha): 50%
Aminocyclopyrachlor Mean % weed control ([7]; 35 g ae/ha): 0%
Aminocyclopyrachlor Mean % weed control ([8]; 18 g ae/ha): 57.5%

CCCCCCC(C)OC(=O)COc1nc(F)c(Cl)c(N)c1Cl (stereo not drawn) [Fluroxypyr-meptyl]
Fluroxypyr-meptyl Mean % weed control [1]: 10%
Fluroxypyr-meptyl Mean % weed control ([2]; 18 g ae/ha): 11.25%
Fluroxypyr-meptyl Mean % weed control ([2]; 35 g ae/ha): 7.5%
Fluroxypyr-meptyl Mean % weed control ([2]; 70 g ae/ha): 47.5%
Fluroxypyr-meptyl Mean % weed control ([3]; 11 DAYS, 70 g ae/ha): 0%
Fluroxypyr-meptyl Mean % weed control ([3]; 37 DAYS, 18 g ae/ha): 0.5%
Fluroxypyr-meptyl Mean % weed control ([3]; 37 DAYS, 70 g ae/ha): 3%
Fluroxypyr-meptyl Mean % weed control ([3]; 70 DAYS, 70 g ae/ha): 1.75%
Fluroxypyr-meptyl Mean % weed control ([4]; 17 DAYS): 3.33%
Fluroxypyr-meptyl Mean % weed control ([4]; 24 DAYS): 3.33%
Fluroxypyr-meptyl Mean % weed control ([5]; 76 DAYS, 80 g ae/ha): 4.8%
Fluroxypyr-meptyl Mean % weed control ([5]; 76 DAYS, 240 g ae/ha): 16.3%
Fluroxypyr-meptyl Mean % weed control ([5]; 88 DAYS, 80 g ae/ha): 4.8%
Fluroxypyr-meptyl Mean % weed control ([5]; 88 DAYS, 240 g ae/ha): 16.3%
Fluroxypyr-meptyl Mean % weed control ([6]; 17 DAYS, 35 g ae/ha): 6.67%
Fluroxypyr-meptyl Mean % weed control ([6]; 17 DAYS, 70 g ae/ha): 13.33%
Fluroxypyr-meptyl Mean % weed control ([6]; 24 DAYS, 70 g ae/ha): 8.33%
Fluroxypyr-meptyl Mean % weed control ([7]; 70 g ae/ha): 1%
Fluroxypyr-meptyl Mean % weed control ([8]; 70 g ae/ha): 22.5%
